Experimental data from EP3981864A1, “DETERGENT COMPOSITION” (priority 2020, dated 2022).

System: Citrus sinensis αDOX (SEQ ID NO: 11), fatty acid alpha-dioxygenase, A0A067FHE4, N-terminal His-tag variant SEQ ID NO: 269 (comparative)
Assay: Alpha-dioxygenase activity assay (oxygen consumption, TON)
Assay type: biochemical
Conditions: fatty acid 100 µM, enzyme 6 ppm, 50 mM HEPES pH 9.0, 37°C; initial rate of oxygen consumption / enzyme concentration
Excerpt: Citrus sinensis αDOX (SEQ ID NO: 11) is a fatty acid alpha-dioxygenase that converts fatty acids into the corresponding 2-hydroperoxy fatty acids and is included as a comparative example of the present invention. A codon optimized gene (SEQ ID NO: 268) encoding for an alpha-dioxygenase variant (SEQ ID NO: 269), including an N-terminal amino acid sequence containing a His-tag was designed and synthesized by Genscript. After gene synthesis, the protein was expressed and purified. In brief, the complete synthetic gene sequence was subcloned into a pET30a vector using the NdeI/HindIII cloning sites. For heterologous expression, Escherichia coli BL21 (DE3) cells were transformed with the recombinant plasmid and a single colony was inoculated into LB medium containing kanamycin (50 mg/L). A pre-starter culture was then inoculated into flasks containing Magic Media (Thermo Fisher, Catalog # K6803) supplemented with kanamycin (50 mg/L) and incubated at 16 °C for 72 h. At an OD600nm = 0.5 - 1.0, 5-aminolevulinic acid (final concentration 0.5 mM) was added. Cells were harvested by centrifugation at 5000 rpm and 4°C and the pellet was lysed using a bacterial cell lysis buffer (B-PER - Themo Fisher, Waltham, MA). After centrifugation, the supernatant was collected, and the protein was purified by one-step purification using HisPur™ Ni-NTA Spin Columns (Thermo Scientific, Catalog # 88226) and standard protocols known in the art. The protein was concentrated using a 10 kDa MW cutoff Amicon Ultra centrifugal filter unit (Millipore Sigma, Catalog# UFC901024), followed by desalting using a disposable PD-10 desalting column (GE Healthcare Life Sciences, Catalog# 17085101) and a buffer containing 50 mM Tris-HCl, 500 mM NaCl, and 10% Glycerol at pH 8.0. […]
Reactions with alpha-dioxygenases were performed as follows. […] The reaction was incubated for up to 10 minutes at 37°C with 200 rpm agitation and the conversion was monitored using an oxygen sensor. The TON (in s-1) were calculated as the ratio between the initial rate of oxygen consumption (in µM/s) and the concentration of enzyme (in µM). […]

## CCCCCCCC/C=C\CCCCCCCC(=O)O [Oleic Acid]
  Oleic Acid, TON: 0.00 s⁻¹

## CCCCCCCCCCCCCCCC(=O)O [Palmitic Acid]
  Palmitic Acid, TON: 0.29 s⁻¹

## CCCCCCCCCCCCCCCCCC(=O)O [Stearic Acid]
  Stearic Acid, TON: 0.00 s⁻¹
